Source: patent US7320804B2, “Cough depressant composition containing iron for angiotensin-converting enzyme inhibitor inducing cough” (Samsung Life Public Welfare Foundation Samsund Medical …, priority 2000, dated 2008)
Like-named read-outs stand apart in the source and are kept apart here.

System: ACEI-induced cough
Details: for Change of cough score, treatment versus observation period (in words): Wilcoxon's signed rank sum test, iron taking group; for Degree of cough, mean daily cough score: 10 patients on ACEI, observation period 6.14 ± 1.41
Method: The research pertaining to the ACEI-induced cough depressant effect by the iron was carried out with nineteen patients taking ACEI. These subjects were patients who developed cough as a result of the side effect caused by taking ACEI. The experiment period was divided into the observation period and the treatment period. 10 of the patients took iron and 9 of the patients took placebo.
The effect of the cough depressant containing iron of the present invention was tested. The cough depressant composition used in the test was ferrous sulphate. Anemia medicine sold as Feroba (trademark), whose ferrous sulphate was removed, was used as the placebo. The 19 tested patients had developed persistent dry cough while taking ACEI for various reasons. They include 6 men and 13 women, whose mean age was 59.9±12.2 years. The patients were divided into groups; the treatment group, which comprised 10 patients taking iron, and the control group, comprising 9 patients taking placebo. The characteristics of the patients are denoted in Table 1. All the patients gave informed consent, and the test was approved by the ethical committee of the Samsung Medical Center and Samsung Biomedical Research Center, Seoul, Korea.
ACEI-induced cough was defined as dry cough that occurred with ACEI use that subsided in seven days after discontinuation of the drug, and reappeared within 48 hours after the re-introduction of the drug and with no abnormality in the lungs and the bronchi.
19 patients completed a cough diary during a 2-week observation period while taking ACEI only. […] Each day was divided into two 12-hour periods. The daytime period began at 8 A.M., and the nighttime period, vice versa. Patients recorded the cough score for each period.
At the end of the observation period, blood samples were drawn from the patient for evaluation of hemoglobin level, hematocrit, iron concentration, total iron binding capacity (“TIBC”), and ferritin concentration. After sampling, they were randomized to either an iron taking group or placebo taking group. 256 mg of ferrous sulfate (of which 80 mg is ferrate) was daily administered to the iron taking group. During the four weeks of the treatment period, subjects were asked to fill in a cough diary in the identical way that they completed the diary in the observation period. After four weeks of the treatment period, blood sampling was repeated for the same evaluation (hemoglobin level, hematocrit, iron concentration, total iron binding capacity (“TIBC”) and ferritin concentration) that was performed in the initiation of the treatment period.
Cough scores from the last week of the observation period and the last week of the treatment period were compared and evaluated. The total sum of the cough scores were calculated from cough scores during the daytime and the nighttime recorded from the range of 0 to 4 for the last week of the observation period and the treatment period, and mean daily cough scores were calculated by dividing the total amount by days. Also, the cough score during the daytime and the nighttime was compared separately. […] The two groups were compared using Wilcoxon's signed rank sum test.

## O=S(=O)([O-])[O-].[Fe+2] [Iron, ferrous sulphate]
Listed as ferrous sulphate
  Change of cough score, treatment versus observation period (in words): significantly reduced
Listed as iron
  Change of cough score, treatment versus observation period (in words): significant reduction of dry cough
Last week of 4-week treatment period, 256 mg ferrous sulfate daily, mean ± SD
  Degree of cough, mean daily cough score: 3.39 ± 2.20 score
Last week of 4-week treatment period, 256 mg ferrous sulfate daily, mean ± SD, listed as iron
  Degree of cough, mean daily cough score: 3.39±2.20 score
Last week of 4-week treatment period, 256 mg ferrous sulfate daily, mean ± SD, observation period 2.86 ± 0.86
  Degree of cough, daytime cough score: 1.51 ± 1.00 score
Last week of 4-week treatment period, 256 mg ferrous sulfate daily, mean ± SD, observation period 3.29 ± 0.73
  Degree of cough, nighttime cough score: 1.87 ± 1.24 score
Of 10 patients in the iron taking group
  Number of patients showing almost complete abolishment of cough: three
Of 10 patients who took iron, treatment versus observation period
  Number of patients showing reduction in cough (decrease in cough score): 9 patients
